According to patent publication US20090111710A1, “CELLULAR SIGNALING PATHWAY BASED ASSAYS, REAGENTS AND KITS” (Cell NetwoRX LLC, priority 2005, published 2009):

Experiments:
PKC subtypes □, □ and □ = conditions: >uM; cited from earlier work
[1] = system: relevant target and pathway; conditions: cited from earlier work
PKC □ = conditions: read-out: Reported Potency IC50; cited from earlier work
MEK ½ [2] = target: MEK ½ (Homo sapiens, UniProt Q02750); conditions: first value, read-out: Reported Potency IC50; cited from earlier work
ERK1 = ERK1 (Homo sapiens, UniProt P27361); conditions: read-out: Selectivity: ERK1 activity IC50; cited from earlier work
MKK4 = target: T1, MKK4 (Homo sapiens, UniProt P45985); conditions: read-out: Selectivity: MKK4 activity IC50; cited from earlier work
T1 sequence (P45985 1-399): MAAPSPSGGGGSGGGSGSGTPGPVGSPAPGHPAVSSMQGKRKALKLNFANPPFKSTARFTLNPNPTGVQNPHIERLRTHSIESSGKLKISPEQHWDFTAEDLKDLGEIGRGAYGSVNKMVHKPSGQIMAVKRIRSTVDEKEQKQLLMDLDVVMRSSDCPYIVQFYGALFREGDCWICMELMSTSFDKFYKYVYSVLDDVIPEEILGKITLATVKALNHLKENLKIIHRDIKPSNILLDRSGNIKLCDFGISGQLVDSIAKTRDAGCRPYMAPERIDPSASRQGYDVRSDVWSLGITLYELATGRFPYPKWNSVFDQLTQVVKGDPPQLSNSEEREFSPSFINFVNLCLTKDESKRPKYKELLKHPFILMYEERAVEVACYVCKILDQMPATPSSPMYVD

MEK ½ [3] = target: MEK ½ (Homo sapiens, UniProt P36507); conditions: second value, read-out: Reported Potency IC50; cited from earlier work
angiogenesis = conditions: in vivo; cited from earlier work
HUVEC = conditions: 48 hrs, 20 nM VEGF; standard deviation of 10%
Procedure: The cellular phenotypes, cell proliferation and/or cell death are measured using viable cell number determination methods. Measurement of cell proliferation and cytotoxicity using the luminescent assay ViaLight™-HS High Sensitivity Cytotoxicity and Cell Proliferation BioAssay Kit from Cambrex (East Rutherford, N.J.) is optimized for HUVECs. Linear detection of cell proliferation or cell survival is possible from as few as 100 and up to 10^6 cells. […] An alternative measurement of both ATP and ADP levels provides a ratio measurement indicating cells proliferation versus cell death.

[4] = Phase III, patients with wet AMD; cited from earlier work

MEK ½ (Homo sapiens, UniProt P36507), sequence (P36507 whole entry): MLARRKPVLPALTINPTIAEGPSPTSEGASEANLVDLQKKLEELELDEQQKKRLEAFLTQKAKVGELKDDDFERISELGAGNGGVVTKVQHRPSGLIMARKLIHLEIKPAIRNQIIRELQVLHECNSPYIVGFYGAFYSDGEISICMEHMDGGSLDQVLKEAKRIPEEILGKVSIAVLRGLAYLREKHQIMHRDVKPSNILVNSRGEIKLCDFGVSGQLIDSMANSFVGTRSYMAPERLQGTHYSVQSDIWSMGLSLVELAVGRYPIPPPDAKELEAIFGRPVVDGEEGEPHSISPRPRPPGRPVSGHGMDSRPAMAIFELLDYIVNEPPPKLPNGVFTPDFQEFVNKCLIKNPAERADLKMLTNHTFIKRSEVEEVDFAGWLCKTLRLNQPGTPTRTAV
MEK ½ (Homo sapiens, UniProt Q02750), sequence (Q02750 whole entry): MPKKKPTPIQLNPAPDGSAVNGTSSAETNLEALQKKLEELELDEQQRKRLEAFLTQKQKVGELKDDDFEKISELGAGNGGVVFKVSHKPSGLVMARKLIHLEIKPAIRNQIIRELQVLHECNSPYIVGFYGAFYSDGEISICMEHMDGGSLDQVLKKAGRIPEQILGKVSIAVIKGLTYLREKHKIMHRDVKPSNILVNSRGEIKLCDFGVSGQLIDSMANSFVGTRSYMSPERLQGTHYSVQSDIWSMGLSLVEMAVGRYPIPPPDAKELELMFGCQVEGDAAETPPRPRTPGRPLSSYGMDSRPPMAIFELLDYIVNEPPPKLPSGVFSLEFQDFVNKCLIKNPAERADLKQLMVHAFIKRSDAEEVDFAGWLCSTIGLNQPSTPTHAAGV
ERK1, sequence (P27361 whole entry, species assumed): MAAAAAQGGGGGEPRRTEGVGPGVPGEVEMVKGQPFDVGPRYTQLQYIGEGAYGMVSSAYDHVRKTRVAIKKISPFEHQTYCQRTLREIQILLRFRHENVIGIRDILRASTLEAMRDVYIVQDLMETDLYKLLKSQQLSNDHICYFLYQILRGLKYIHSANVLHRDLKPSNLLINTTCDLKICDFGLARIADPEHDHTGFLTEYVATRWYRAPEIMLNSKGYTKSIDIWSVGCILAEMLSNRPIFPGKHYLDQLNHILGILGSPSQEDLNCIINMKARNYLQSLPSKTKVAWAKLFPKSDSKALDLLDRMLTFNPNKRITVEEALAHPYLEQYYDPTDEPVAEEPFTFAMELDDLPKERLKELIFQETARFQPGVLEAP

In the case of Cn1c2ccccc2c2c3c(c4c5ccccc5n(CCC#N)c4c21)CNC3=O [Go 6976], the “Selectivity: effect on the kinase activity of PKC subtypes □, □ and □” value (PKC subtypes □, □ and □) is listed as “>uM no effect”, the “activity against the relevant target and pathway in vivo” value (“activity … in vivo” below) [1] is listed as “shown activity” and the IC50 (PKC □) is listed as 2.3 nM.

For C[S+]([O-])c1ccc(-c2nc(-c3ccncc3)c(-c3ccc(F)cc3)[nH]2)cc1 (stereo not drawn) [SB 203580], the “activity … in vivo” value [1] is given as “shown activity”.

In the case of N#C/C(=C(/N)Sc1ccc(N)cc1)c1ccccc1C(F)(F)F [SL327], the IC50 (MEK ½ [2]) is listed as 180 nM, the IC50 (ERK1) is listed as greater than 10000 nM and the IC50 (MKK4) is listed as greater than 10000 nM. The IC50 (MEK ½ [3]) was 220 nM.

In the case of Cc1cc(C)c(/C=C2\C(=O)Nc3ccccc32)[nH]1 [SU5416], the “angiogenesis in the wound-healing model” value (angiogenesis) is given as “block angiogenesis” and the “activity … in vivo” value [1] is given as “shown activity”.

In the case of VEGF, the “signal to noise for HUVEC proliferation” value (HUVEC) is reported as 2 fold.

B1: Lucentis: humanized antibody fragment developed at Genentech, designed to bind and inhibit Vascular Endothelial Growth Factor A (antibody, chains of the INN, looked up, V domains shown)
VH: EVQLVESGGGLVQPGGSLRLSCAASGYDFTHYGMNWVRQAPGKGLEWVGWINTYTGEPTYAADFKRRFTFSLDTSKSTAYLQMNSLRAEDTAVYYCAKYPYYYGTSHWYFDVWGQGTLVTVSS
VL: DIQLTQSPSSLSASVGDRVTITCSASQDISNYLNWYQQKPGKAPKVLIYFTSSLHSGVPSRFSGSGSGTDFTLTISSLQPEDFATYYCQQYSTVPWTFGQGTKVEIK
modifications: Fab
For B1, the vision [4] is listed as “improved vision”.
